Laboratory results reported in patent US20260325533A1, “CDK INHIBITOR COMPOUNDS” (ALEKSIA THERAPEUTICS, INC., priority 2023, published 2026).
pIC50: −log10 of the molar value. Like-named read-outs stand apart in the source and are kept apart here.

Legend:
Type in all cases: biochemical
CDK6/CCND1 = CDK6/CCND1 (Homo sapiens, UniProt Q00534); test: CDK6 homogeneous time-resolved fluorescence (HTRF) kinase assay; conditions: CDK6/CCND
How it was run: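 Recombinant CDK6/CCND1 (1 nM final) was preincubated with compound for 20 min at 23 °C in HEPES buffer with MgCl2, EGTA, DTT and Tween 20. Kinase reaction then ran 60 min at 23 °C with 1 mM ATP and 50 nM ULight-4E-BP1 (Thr37/46) peptide, and was stopped with EDTA.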

CDK1/CCNB1 = CDK1/CCNB1 (Homo sapiens, UniProt P06493); test: CDK1 homogeneous time-resolved fluorescence (HTRF) kinase assay; conditions: CDK1/CCNB
How it was run: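 Kinase activity is measured as Lance signal (665 nm, or 665/615 nm ratio) from europium-labelled anti-phospho-Thr37/46 antibody binding ULight-4E-BP1 peptide. Reactions contain 0.5 nM enzyme, 1 mM ATP, 1% DMSO and run 60 min at 23 °C before EDTA quench.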

CDK2/CCNE1 = CDK2/CCNE1 (Homo sapiens, UniProt P24941); test: CDK2 homogeneous time-resolved fluorescence (HTRF) kinase assay; conditions: CDK2/CCNE
How it was run: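 IC50 derived from 11-point, half-log dilutions (usually top 10 μM) of compound, 1% DMSO. Kinase (3 nM CDK2/CCNE1) was preincubated with compound 20 min, then phosphorylated 50 nM ULight-4E-BP1 peptide at 1 mM ATP for 60 min, 23 °C. Europium-antibody TR-FRET read after EDTA stop.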

CDK4/CCND3 = CDK4/CCND3 (Homo sapiens, UniProt P11802); test: CDK4 homogeneous time-resolved fluorescence (HTRF) kinase assay; conditions: CDK4/CCND
How it was run: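 HTRF kinase assay, CDK4/CCND3 1.5 nM, ATP 1 mM, ULight-4E-BP1 peptide 50 nM, 23 °C, 60 min reaction after 20 min preincubation. Eu-anti-pThr37/46 antibody detection. 11-pt half-log curves from 10 μM → IC50.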

[1] = x = IC50 25-250 nM, read-out: CDK6/CCND IC50 (25-250 nM)
[2] = x = IC50 <25 nM, read-out: CDK1/CCNB IC50 (<25 nM)
[3] = x = IC50 <25 nM, read-out: CDK2/CCNE IC50 (<25 nM)
[4] = x = IC50 >250 nM, read-out: CDK6/CCND IC50 (>250 nM column)
[5] = x = IC50 25-250 nM, read-out: CDK1/CCNB IC50 (25-250 nM)
[6] = x = IC50 25-250 nM, read-out: CDK4/CCND IC50 (25-250 nM)
[7] = x = IC50 >250 nM, read-out: CDK4/CCND IC50 (>250 nM column)
[8] = x = IC50 >250 nM, read-out: CDK1/CCNB IC50 (>250 nM column)
[9] = x = IC50 25-250 nM, read-out: CDK2/CCNE IC50 (25-250 nM)

Sequence of CDK4/CCND3 (P11802 whole entry): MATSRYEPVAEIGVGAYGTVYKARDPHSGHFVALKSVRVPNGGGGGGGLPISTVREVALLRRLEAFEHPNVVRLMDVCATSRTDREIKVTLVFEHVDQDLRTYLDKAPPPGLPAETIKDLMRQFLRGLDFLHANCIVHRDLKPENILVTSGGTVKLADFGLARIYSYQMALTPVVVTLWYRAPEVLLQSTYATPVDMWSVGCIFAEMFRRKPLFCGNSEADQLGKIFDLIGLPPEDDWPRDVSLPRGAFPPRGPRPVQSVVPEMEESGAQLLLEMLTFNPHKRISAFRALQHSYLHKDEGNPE
Sequence of CDK4/CCND3 (P30281 whole entry partner): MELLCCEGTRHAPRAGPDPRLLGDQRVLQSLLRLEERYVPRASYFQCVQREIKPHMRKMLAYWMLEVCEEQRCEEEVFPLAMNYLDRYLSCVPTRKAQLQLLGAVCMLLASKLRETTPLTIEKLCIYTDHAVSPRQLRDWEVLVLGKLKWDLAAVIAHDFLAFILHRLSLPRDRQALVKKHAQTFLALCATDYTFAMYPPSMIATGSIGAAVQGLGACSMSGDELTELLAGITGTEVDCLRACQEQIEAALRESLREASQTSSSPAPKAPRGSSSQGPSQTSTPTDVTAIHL
Sequence of CDK6/CCND1 (Q00534 whole entry): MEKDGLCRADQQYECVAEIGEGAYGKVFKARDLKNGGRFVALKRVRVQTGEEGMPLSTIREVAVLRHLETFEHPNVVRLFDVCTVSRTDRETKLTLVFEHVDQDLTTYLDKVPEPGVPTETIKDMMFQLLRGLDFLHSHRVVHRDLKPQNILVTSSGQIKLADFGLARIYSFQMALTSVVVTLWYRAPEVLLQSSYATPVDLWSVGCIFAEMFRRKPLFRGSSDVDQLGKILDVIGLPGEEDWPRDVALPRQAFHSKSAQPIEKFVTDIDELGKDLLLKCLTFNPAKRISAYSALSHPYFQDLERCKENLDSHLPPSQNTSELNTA
Sequence of CDK6/CCND1 (P24385 whole entry partner): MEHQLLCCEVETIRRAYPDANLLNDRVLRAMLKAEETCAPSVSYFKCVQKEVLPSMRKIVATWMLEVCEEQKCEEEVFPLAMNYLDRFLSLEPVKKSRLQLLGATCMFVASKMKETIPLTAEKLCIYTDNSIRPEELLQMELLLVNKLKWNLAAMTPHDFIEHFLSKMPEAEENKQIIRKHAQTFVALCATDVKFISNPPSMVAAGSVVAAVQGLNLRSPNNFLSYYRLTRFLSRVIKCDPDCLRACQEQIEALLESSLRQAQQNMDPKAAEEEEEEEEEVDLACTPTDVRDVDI
Sequence of CDK1/CCNB1 (P06493 whole entry): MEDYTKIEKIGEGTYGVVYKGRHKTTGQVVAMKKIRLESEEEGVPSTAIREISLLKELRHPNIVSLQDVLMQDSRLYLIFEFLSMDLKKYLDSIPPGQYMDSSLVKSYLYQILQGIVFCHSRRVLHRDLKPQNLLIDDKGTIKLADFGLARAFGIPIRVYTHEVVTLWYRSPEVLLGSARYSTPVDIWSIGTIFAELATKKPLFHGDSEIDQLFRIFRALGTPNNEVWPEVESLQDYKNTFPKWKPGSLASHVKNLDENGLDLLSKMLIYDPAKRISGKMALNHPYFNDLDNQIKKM
Sequence of CDK1/CCNB1 (P14635 whole entry partner): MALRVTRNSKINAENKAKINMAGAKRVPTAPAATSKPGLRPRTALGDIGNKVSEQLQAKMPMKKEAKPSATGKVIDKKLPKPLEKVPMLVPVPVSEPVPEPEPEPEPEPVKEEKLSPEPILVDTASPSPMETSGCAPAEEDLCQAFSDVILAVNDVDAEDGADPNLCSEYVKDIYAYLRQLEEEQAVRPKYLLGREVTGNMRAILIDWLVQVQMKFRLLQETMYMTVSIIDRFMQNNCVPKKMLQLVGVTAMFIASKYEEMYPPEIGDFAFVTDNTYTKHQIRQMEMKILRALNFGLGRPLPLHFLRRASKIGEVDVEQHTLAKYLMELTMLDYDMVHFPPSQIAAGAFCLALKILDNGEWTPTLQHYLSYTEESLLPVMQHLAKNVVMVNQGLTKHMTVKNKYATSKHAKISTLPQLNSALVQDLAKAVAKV

## CC1(C)C(=O)Nc2cc(C#Cc3nccc4cnc(Nc5ccc(S(=O)(=O)NC6CCNCC6)cc5)cc34)ccc21 [Ex 442, 4-((5-((3,3-dimethyl-2-oxoindolin-6-yl)ethynyl)-2,6-naphthyridin-3-yl)amino)-N-(piperidin-4-yl)benzenesulfonamide]
CDK6/CCND1; [1]
  pIC50: 6.60 to 7.60
CDK1/CCNB1; [2]
  pIC50: > 7.60
CDK2/CCNE1; [3]
  pIC50: > 7.60
CDK4/CCND3; x = IC50 <25 nM, read-out: CDK4/CCND IC50 (<25 nM)
  pIC50: > 7.60

## CC1(C)C(=O)Nc2cc(C#Cc3nccc4cnc(Nc5ccc(S(=O)(=O)NC6CCOCC6)cc5)cc34)ccc21 [Ex 443, 4-((5-((3,3-dimethyl-2-oxoindolin-6-yl)ethynyl)-2,6-naphthyridin-3-yl)amino)-N-(tetrahydro-2H-pyran-4-yl)benzenesulfonamide]
CDK6/CCND1; [4]
  pIC50: < 6.60
CDK1/CCNB1; [5]
  pIC50: 6.60 to 7.60
CDK2/CCNE1; [3]
  pIC50: > 7.60
CDK4/CCND3; [6]
  pIC50: 6.60 to 7.60

## CC1(C)C(=O)Nc2cc(C#Cc3nccc4cnc(Nc5ccc(S(=O)(=O)C6CC6)cc5)cc34)ccc21 [Ex 444, 6-((7-((4-(cyclopropylsulfonyl)phenyl)amino)-2,6-naphthyridin-1-yl)ethynyl)-3,3-dimethylindolin-2-one]
CDK6/CCND1; [4]
  pIC50: < 6.60
CDK1/CCNB1; [2]
  pIC50: > 7.60
CDK2/CCNE1; [3]
  pIC50: > 7.60
CDK4/CCND3; [6]
  pIC50: 6.60 to 7.60

## CS(=O)(=O)c1ccc(Nc2cc3c(C#Cc4ccc5c(c4)NC(=O)C54CC4)nccc3cn2)cc1 [Ex 445, 6'-((7-((4-(methylsulfonyl)phenyl)amino)-2,6-naphthyridin-1-yl)ethynyl)spiro[cyclopropane-1,3'-indolin]-2'-one]
CDK6/CCND1; [1]
  pIC50: 6.60 to 7.60
CDK1/CCNB1; [5]
  pIC50: 6.60 to 7.60
CDK2/CCNE1; [3]
  pIC50: > 7.60
CDK4/CCND3; [6]
  pIC50: 6.60 to 7.60

## CCNS(=O)(=O)c1ccc(Nc2cc3c(C#Cc4cccnc4N)nccc3cn2)cc1 [Ex 447, 4-((5-((2-aminopyridin-3-yl)ethynyl)-2,6-naphthyridin-3-yl)amino)-N-ethylbenzenesulfonamide]
CDK6/CCND1; [4]
  pIC50: < 6.60
CDK1/CCNB1; [5]
  pIC50: 6.60 to 7.60
CDK2/CCNE1; [3]
  pIC50: > 7.60
CDK4/CCND3; [6]
  pIC50: 6.60 to 7.60

## Cc1cc(S(N)(=O)=O)ccc1Nc1cc2c(C#Cc3cccnc3N)nccc2cn1 [Ex 448, 4-((5-((2-aminopyridin-3-yl)ethynyl)-2,6-naphthyridin-3-yl)amino)-3-methylbenzenesulfonamide]
CDK6/CCND1; [4]
  pIC50: < 6.60
CDK1/CCNB1; [5]
  pIC50: 6.60 to 7.60
CDK2/CCNE1; [3]
  pIC50: > 7.60
CDK4/CCND3; [7]
  pIC50: < 6.60

## Cn1cc(NS(=O)(=O)c2ccc(Nc3cc4c(C#Cc5cccnc5N)nccc4cn3)cc2)cn1 [Ex 450, 4-((5-((2-aminopyridin-3-yl)ethynyl)-2,6-naphthyridin-3-yl)amino)-N-(1-methyl-1H-pyrazol-4-yl)benzenesulfonamide]
CDK6/CCND1; [4]
  pIC50: < 6.60
CDK1/CCNB1; [8]
  pIC50: < 6.60
CDK2/CCNE1; [9]
  pIC50: 6.60 to 7.60
CDK4/CCND3; [7]
  pIC50: < 6.60

## CC1(C)C(=O)Nc2cc(C#Cc3nccc4cnc(Nc5ccc(S(=O)(=O)NC6CCC6)cc5)cc34)ccc21 [Ex 457, N-cyclobutyl-4-((5-((3,3-dimethyl-2-oxoindolin-6-yl)ethynyl)-2,6-naphthyridin-3-yl)amino)benzenesulfonamide]
CDK6/CCND1; [4]
  pIC50: < 6.60
CDK1/CCNB1; [5]
  pIC50: 6.60 to 7.60
CDK2/CCNE1; [3]
  pIC50: > 7.60
CDK4/CCND3; [7]
  pIC50: < 6.60

## CC(C)S(=O)(=O)c1ccc(Nc2cc3c(C#Cc4ccc5c(c4)NC(=O)C5(C)C)nccc3cn2)cc1 [Ex 458, 6-((7-((4-(isopropylsulfonyl)phenyl)amino)-2,6-naphthyridin-1-yl)ethynyl)-3,3-dimethylindolin-2-one]
CDK6/CCND1; [4]
  pIC50: < 6.60
CDK1/CCNB1; [5]
  pIC50: 6.60 to 7.60
CDK2/CCNE1; [3]
  pIC50: > 7.60
CDK4/CCND3; [7]
  pIC50: < 6.60

## CCS(=O)(=O)c1ccc(Nc2cc3c(C#Cc4ccc5c(c4)NC(=O)C5(C)C)nccc3cn2)cc1 [Ex 459, 6-((7-((4-(ethylsulfonyl)phenyl)amino)-2,6-naphthyridin-1-yl)ethynyl)-3,3-dimethylindolin-2-one]
CDK6/CCND1; [4]
  pIC50: < 6.60
CDK1/CCNB1; [5]
  pIC50: 6.60 to 7.60
CDK2/CCNE1; [3]
  pIC50: > 7.60
CDK4/CCND3; [6]
  pIC50: 6.60 to 7.60

## CS(=O)(=O)c1ccc(Nc2cc3c(C#Cc4ccc5c(c4)NC(=O)C54CCC4)nccc3cn2)cc1 [Ex 460, 6'-((7-((4-(methylsulfonyl)phenyl)amino)-2,6-naphthyridin-1-yl)ethynyl)spiro[cyclobutane-1,3'-indolin]-2'-one]
CDK6/CCND1; [4]
  pIC50: < 6.60
CDK1/CCNB1; [8]
  pIC50: < 6.60
CDK2/CCNE1; [3]
  pIC50: > 7.60
CDK4/CCND3; [7]
  pIC50: < 6.60

## CCC1(CC)C(=O)Nc2cc(C#Cc3nccc4cnc(Nc5ccc(S(C)(=O)=O)cc5)cc34)ccc21 [Ex 461, 3,3-diethyl-6-((7-((4-(methylsulfonyl)phenyl)amino)-2,6-naphthyridin-1-yl)ethynyl)indolin-2-one]
CDK6/CCND1; [4]
  pIC50: < 6.60
CDK1/CCNB1; [8]
  pIC50: < 6.60
CDK2/CCNE1; [3]
  pIC50: > 7.60
CDK4/CCND3; [7]
  pIC50: < 6.60

## Nc1ncccc1C#Cc1nccc2cnc(Nc3ccc(S(N)(=O)=O)cc3F)cc12 [Ex 466, 4-((5-((2-aminopyridin-3-yl)ethynyl)-2,6-naphthyridin-3-yl)amino)-3-fluorobenzenesulfonamide]
CDK6/CCND1; [4]
  pIC50: < 6.60
CDK1/CCNB1; [8]
  pIC50: < 6.60
CDK2/CCNE1; [3]
  pIC50: > 7.60
CDK4/CCND3; [7]
  pIC50: < 6.60

## CNS(=O)(=O)c1ccc(Nc2cc3c(C#Cc4cccnc4N)nccc3cn2)c(F)c1 [Ex 467, 4-((5-((2-aminopyridin-3-yl)ethynyl)-2,6-naphthyridin-3-yl)amino)-3-fluoro-N-methylbenzenesulfonamide]
CDK6/CCND1; [4]
  pIC50: < 6.60
CDK1/CCNB1; [5]
  pIC50: 6.60 to 7.60
CDK2/CCNE1; [3]
  pIC50: > 7.60
CDK4/CCND3; [7]
  pIC50: < 6.60

## Nc1ncccc1C#Cc1nccc2cnc(Nc3ccc(S(=O)(=O)Nc4nccc(N5CCNCC5)n4)cc3)cc12 [Ex 468, 4-((5-((2-aminopyridin-3-yl)ethynyl)-2,6-naphthyridin-3-yl)amino)-N-(4-(piperazin-1-yl)pyrimidin-2-yl)benzenesulfonamide]
CDK6/CCND1; [4]
  pIC50: < 6.60
CDK1/CCNB1; [8]
  pIC50: < 6.60
CDK2/CCNE1; [9]
  pIC50: 6.60 to 7.60
CDK4/CCND3; [7]
  pIC50: < 6.60

## CNS(=O)(=O)c1ccc(Nc2cc3c(C#Cc4cccnc4N)nccc3cn2)cc1 [Ex 469, 4-((5-((2-aminopyridin-3-yl)ethynyl)-2,6-naphthyridin-3-yl)amino)-N-methylbenzenesulfonamide]
CDK6/CCND1; [4]
  pIC50: < 6.60
CDK1/CCNB1; [5]
  pIC50: 6.60 to 7.60
CDK2/CCNE1; [3]
  pIC50: > 7.60
CDK4/CCND3; [6]
  pIC50: 6.60 to 7.60

## CS(=O)(=O)c1ccc(Nc2cc3c(C#Cc4cnn5ccccc45)nccc3cn2)cc1 [Ex 478, N-(4-(methylsulfonyl)phenyl)-5-(pyrazolo[1,5-a]pyridin-3-ylethynyl)-2,6-naphthyridin-3-amine]
CDK6/CCND1; [4]
  pIC50: < 6.60
CDK1/CCNB1; [8]
  pIC50: < 6.60
CDK2/CCNE1; [9]
  pIC50: 6.60 to 7.60
CDK4/CCND3; [7]
  pIC50: < 6.60

## CC1(C)C(=O)Nc2cc(C#Cc3nccc4cnc(Nc5ccc(S(C)(=O)=O)cc5)cc34)ccc21 [Ex 486, 3,3-dimethyl-6-((7-((4-(methylsulfonyl)phenyl)amino)-2,6-naphthyridin-1-yl)ethynyl)indolin-2-one]
CDK6/CCND1; [4]
  pIC50: < 6.60
CDK1/CCNB1; [5]
  pIC50: 6.60 to 7.60
CDK2/CCNE1; [3]
  pIC50: > 7.60
CDK4/CCND3; [6]
  pIC50: 6.60 to 7.60

## CS(=O)(=O)c1ccc(Nc2cc3c(C#Cc4cncnc4N)nccc3cn2)cc1 [Ex 492, 5-((4-aminopyrimidin-5-yl)ethynyl)-N-(4-(methylsulfonyl)phenyl)-2,6-naphthyridin-3-amine]
CDK6/CCND1; [4]
  pIC50: < 6.60
CDK1/CCNB1; [8]
  pIC50: < 6.60
CDK2/CCNE1; [9]
  pIC50: 6.60 to 7.60
CDK4/CCND3; [7]
  pIC50: < 6.60

## COC(=O)c1ccc2c(C#Cc3nccc4cnc(Nc5ccc(S(C)(=O)=O)cc5)cc34)n[nH]c2c1 [Ex 498, methyl 3-((7-((4-(methylsulfonyl)phenyl)amino)-2,6-naphthyridin-1-yl)ethynyl)-1H-indazole-6-carboxylate]
CDK6/CCND1; [4]
  pIC50: < 6.60
CDK1/CCNB1; [8]
  pIC50: < 6.60
CDK2/CCNE1; x = IC50 >250 nM, read-out: CDK2/CCNE IC50 (>250 nM column)
  pIC50: < 6.60
CDK4/CCND3; [7]
  pIC50: < 6.60
